Assay results taken from ChEMBL document CHEMBL1201862, “PubChem BioAssay data set” (2004).
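These data come from cells grown in 96-well plates and exposed to compound for 48 hours at five concentrations. The concentration for 50% growth inhibition is given as GI50.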 Calls of active or inactive are those of the source. Cut-off read from the data, not from the text of the source: active = GI50 up to about 1.1 µM and inactive = higher. Square brackets hold non-standard residues; d marks the D form. Peptide text beside a SMILES is read from it. ξ: configuration not given here. ξ2Thi = NC(Cc1cccs1)C(=O)O; ξR = N=C(N)NCCCC(N)C(=O)O; ξI = CCC(C)C(N)C(=O)O; ξL = CC(C)CC(N)C(=O)O; ξK = NCCCCC(N)C(=O)O; ξT = CC(O)C(N)C(=O)O; ξA = CC(N)C(=O)O

Legend:
Test in all cases: DTP human tumour cell line panel, 48 h
[1] = test system: MCF7
[2] = test system: SK-MEL-2
[3] = test system: HCC 2998
[4] = test system: NCI-H522
[5] = test system: SF-539
[6] = test system: MOLT-4
[7] = test system: SF-295
[8] = test system: HCT-116
[9] = test system: HOP-92
[10] = test system: SW-620
[11] = test system: MDA-N
[12] = test system: HL-60
[13] = test system: SNB-19
[14] = test system: MDA-MB-231
[15] = test system: DU-145
[16] = test system: RPMI-8226
[17] = test system: CAKI-1
[18] = test system: OVCAR-3
[19] = test system: LOX IMVI
[20] = test system: SR

Measured: GI50

Nc1ncnc2c1ccn2CC=C(CO)CO
inactive: [1] > 100 µM | [2] > 100 µM | [3] > 100 µM | [4] > 100 µM | [5] > 100 µM | [6] > 100 µM | [7] > 100 µM | [8] > 100 µM | [9] > 100 µM | [10] > 100 µM | [11] > 100 µM | [12] > 100 µM | [13] > 100 µM | [14] > 100 µM | [15] > 100 µM | [16] > 100 µM | [17] > 100 µM | [18] > 100 µM | [19] > 100 µM

COc1ccc(-n2sc3ncc([N+](=O)[O-])cc3c2=O)cc1
inactive: [1] > 100 µM | [20] > 100 µM | [2] > 100 µM | [3] > 100 µM | [4] 34.4 µM | [5] > 100 µM | [6] > 100 µM | [7] > 100 µM | [8] > 100 µM | [10] > 100 µM | [11] > 100 µM | [12] > 100 µM | [13] > 100 µM | [14] > 100 µM | [15] > 100 µM | [16] > 100 µM | [18] > 100 µM | [19] > 100 µM

[O-][S+](Nc1ccccc1)c1ccc(Cl)c(Cl)c1 (stereo unspecified)
inactive: [1] 33.7 µM | [20] 26.4 µM | [2] 33.3 µM | [3] 27.3 µM | [4] 21.9 µM | [5] 20.6 µM | [6] 23.7 µM | [7] 24.2 µM | [8] 33.1 µM | [10] > 100 µM | [11] > 100 µM | [12] 36.9 µM | [13] 62.8 µM | [14] 40.9 µM | [15] 69.8 µM | [16] 51.6 µM | [18] 63.2 µM | [19] 38.8 µM

CCC(C)C(NC(=O)C(Cc1cccs1)NC(=O)C(CC(C)C)NC(=O)C(CC(C)C)NC(=O)C(CCCCN)NC(=O)C(CCCN=C(N)N)NC(=O)[C@H](Cc1ccc(O)cc1)NC(=O)C(NC(=O)C(C)NC(=O)C(N)CC(C)C)C(C)O)C(=O)NC(CC(C)C)C(N)=O (stereo partly specified) (H-[ξL][ξA][ξT]Y[ξR][ξK][ξL][ξL][ξ2Thi][ξI][ξL]-NH2)
inactive: [1] > 50 µM | [20] > 50 µM | [3] > 50 µM | [4] > 50 µM | [5] > 50 µM | [6] > 50 µM | [7] > 50 µM | [8] > 50 µM | [10] > 50 µM | [11] > 50 µM | [13] > 50 µM | [14] > 50 µM | [15] > 50 µM | [16] > 50 µM | [17] > 50 µM | [18] > 50 µM | [19] > 50 µM

O=C(CC1C=Cc2ccccc2N1C(=O)c1ccccc1)c1ccccc1 (stereo unspecified)
inactive: [1] 29.1 µM | [20] 11.9 µM | [2] 17.3 µM | [4] 13.8 µM | [5] 22.6 µM | [6] 11.7 µM | [7] 27 µM | [8] 16 µM | [9] 24 µM | [10] 33.6 µM | [11] 16.1 µM | [12] 14 µM | [13] 27.7 µM | [14] 21.9 µM | [15] 50.8 µM | [16] 10.9 µM | [17] 34.2 µM | [18] 13.4 µM | [19] 23.6 µM
